Reference: the CheMixHub ionic liquid set

Experiment: xn = mol fraction of the nth substance listed

CCCCCCCCn1cc[n+](C)c1.[Cl-] + CCCO
101 kPa
Details | viscosity [mPa·s]
298.15 K, x2 = 0 | 21000
298.15 K, x2 = 0.7248 | 19.25
298.15 K, x2 = 0.9024 | 4.6
313.15 K, x2 = 0.407 | 160
328.15 K, x2 = 0 | 1091
328.15 K, x2 = 0.1071 | 560
328.15 K, x2 = 0.2407 | 231
328.15 K, x2 = 0.3036 | 144
328.15 K, x2 = 0.6209 | 17.73
328.15 K, x2 = 0.7248 | 8.25
328.15 K, x2 = 0.94 | 1.679
328.15 K, x2 = 0.9729 | 1.372

CCCCCCCCCCCCCCCC[N+](C)(C)C.[Br-] + O
Details | viscosity [mPa·s]
298.15 K, 100 kPa, x1 = 7.21e-06 | 0.896
298.15 K, 100 kPa, x1 = 2.162e-05 | 0.9
298.15 K, 100 kPa, x1 = 7.207e-05 | 0.8804
298.15 K, 101 kPa, x1 = 1.46e-05 | 0.905
298.15 K, 101 kPa, x1 = 1.64e-05 | 0.9071
298.15 K, 101 kPa, x1 = 1.802e-05 | 0.9069
298.15 K, 101 kPa, x1 = 3.622e-05 | 0.9141
298.15 K, 101 kPa, x1 = 5.496e-05 | 0.9181
298.15 K, 101 kPa, x1 = 6.937e-05 | 0.9203
298.15 K, 101 kPa, x1 = 9.225e-05 | 0.9267
298.15 K, 101 kPa, x1 = 0.0001067 | 0.933
298.15 K, 101 kPa, x1 = 0.0001193 | 0.9362
298.15 K, 101 kPa, x1 = 0.0001429 | 0.9436
298.15 K, 101 kPa, x1 = 0.0001602 | 0.9481
298.15 K, 101 kPa, x1 = 0.0001802 | 0.9511
298.15 K, 101 kPa, x1 = 0.0002057 | 0.9556
298.15 K, 101 kPa, x1 = 0.000211 | 0.9553
298.15 K, 101 kPa, x1 = 0.000245 | 0.9662
298.15 K, 101 kPa, x1 = 0.0002573 | 0.9651
298.15 K, 101 kPa, x1 = 0.0002724 | 0.9675
303.15 K, 100 kPa, x1 = 7.207e-05 | 0.7984
308.15 K, 100 kPa, x1 = 7.21e-06 | 0.742
308.15 K, 100 kPa, x1 = 2.162e-05 | 0.745
308.15 K, 100 kPa, x1 = 7.207e-05 | 0.7583

298.15 K, 101 kPa, frequency 0.001 MHz
Details | electrical conductivity [S/m]
x1 = 1.09e-06 | 0.001
x1 = 2.34e-06 | 0.00165
x1 = 3.39e-06 | 0.00255
x1 = 4.43e-06 | 0.00305
x1 = 5.57e-06 | 0.00366
x1 = 6.72e-06 | 0.00441
x1 = 7.97e-06 | 0.00511
x1 = 8.91e-06 | 0.00577
x1 = 1.12e-05 | 0.00697
x1 = 1.213e-05 | 0.00757
x1 = 1.307e-05 | 0.00823
x1 = 1.411e-05 | 0.00873
x1 = 1.526e-05 | 0.00943
x1 = 1.63e-05 | 0.00978
x1 = 1.734e-05 | 0.0102
x1 = 1.922e-05 | 0.0105
x1 = 1.995e-05 | 0.0108
x1 = 2.172e-05 | 0.0111
x1 = 2.276e-05 | 0.0113
x1 = 2.443e-05 | 0.0115
x1 = 2.599e-05 | 0.0117
x1 = 2.734e-05 | 0.012
x1 = 2.859e-05 | 0.0122

C[N+]1(CCOCCOCCOCCOCC[N+]2(C)CCCC2)CCCC1.N#C[N-]C#N.N#C[N-]C#N + CC[n+]1ccn(C)c1.N#C[N-]C#N + O=S(=O)([N-]S(=O)(=O)C(F)(F)F)C(F)(F)F.[Li+]
100 kPa, x1 = 0.2352, x2 = 0.6725
Details | electrical conductivity [S/m]
298 K | 0.37
303 K | 0.435
313 K | 0.646
323 K | 0.941
333 K | 1.2
343 K | 1.51

CCn1cc[n+](C)c1.[Cl][Al-]([Cl])([Cl])[Cl+][Al-]([Cl])([Cl])[Cl] + CC[n+]1ccn(C)c1.[Cl][Al-]([Cl])([Cl])[Cl]
100 kPa, x1 = 1
Details | viscosity [mPa·s]
313.15 K | 9.79
323.15 K | 7.943
343.15 K | 5.526
353.15 K | 4.721

COC(=O)OC + CCCCn1cc[n+](C)c1C.O=S(=O)([N-]S(=O)(=O)C(F)(F)F)C(F)(F)F
101.3 kPa, x2 = 0
Details | viscosity [mPa·s]
288.15 K | 0.668
293.15 K | 0.628
298.15 K | 0.588
303.15 K | 0.553
308.15 K | 0.524
313.15 K | 0.498

C[N+](C)(C)CCO.O=S(=O)([N-]S(=O)(=O)C(F)(F)F)C(F)(F)F + OCCCO
101 kPa
Details | viscosity [mPa·s]
313.15 K, x2 = 0.1272 | 47.2
313.15 K, x2 = 0.4106 | 30
313.15 K, x2 = 0.5712 | 24.9
318.15 K, x2 = 0 | 46.8
328.15 K, x2 = 0 | 33.4
333.15 K, x2 = 0.1272 | 23.9
333.15 K, x2 = 0.2297 | 20.5
333.15 K, x2 = 0.6946 | 11.27
338.15 K, x2 = 0.2297 | 17.8
338.15 K, x2 = 0.6946 | 9.76
338.15 K, x2 = 0.9474 | 8.48
343.15 K, x2 = 0.2297 | 15.62
348.15 K, x2 = 0 | 19.1
348.15 K, x2 = 0.5712 | 8.63
353.15 K, x2 = 0.8367 | 5.98
